Measurements published in ChEMBL document CHEMBL5465560, “Selectivity Literature for EUbOPEN Chemogenomic Library” (2024).
Values belong to the compound of their own block, whether it stands above or below them.

Tests used:
[1] = molecular target: Calcium/calmodulin-dependent protein kinase type 1G (Homo sapiens) (UniProt Q96NX5); details: at 10 µM
[2] = molecular target: T1, Serine/threonine-protein kinase TAO2 (Homo sapiens) (UniProt Q9UL54); assay: Selectivity interaction (Kinase panel (literature)) EUB0001199aCl TAOK2; details: at 1 µM
T1 sequence (whole entry): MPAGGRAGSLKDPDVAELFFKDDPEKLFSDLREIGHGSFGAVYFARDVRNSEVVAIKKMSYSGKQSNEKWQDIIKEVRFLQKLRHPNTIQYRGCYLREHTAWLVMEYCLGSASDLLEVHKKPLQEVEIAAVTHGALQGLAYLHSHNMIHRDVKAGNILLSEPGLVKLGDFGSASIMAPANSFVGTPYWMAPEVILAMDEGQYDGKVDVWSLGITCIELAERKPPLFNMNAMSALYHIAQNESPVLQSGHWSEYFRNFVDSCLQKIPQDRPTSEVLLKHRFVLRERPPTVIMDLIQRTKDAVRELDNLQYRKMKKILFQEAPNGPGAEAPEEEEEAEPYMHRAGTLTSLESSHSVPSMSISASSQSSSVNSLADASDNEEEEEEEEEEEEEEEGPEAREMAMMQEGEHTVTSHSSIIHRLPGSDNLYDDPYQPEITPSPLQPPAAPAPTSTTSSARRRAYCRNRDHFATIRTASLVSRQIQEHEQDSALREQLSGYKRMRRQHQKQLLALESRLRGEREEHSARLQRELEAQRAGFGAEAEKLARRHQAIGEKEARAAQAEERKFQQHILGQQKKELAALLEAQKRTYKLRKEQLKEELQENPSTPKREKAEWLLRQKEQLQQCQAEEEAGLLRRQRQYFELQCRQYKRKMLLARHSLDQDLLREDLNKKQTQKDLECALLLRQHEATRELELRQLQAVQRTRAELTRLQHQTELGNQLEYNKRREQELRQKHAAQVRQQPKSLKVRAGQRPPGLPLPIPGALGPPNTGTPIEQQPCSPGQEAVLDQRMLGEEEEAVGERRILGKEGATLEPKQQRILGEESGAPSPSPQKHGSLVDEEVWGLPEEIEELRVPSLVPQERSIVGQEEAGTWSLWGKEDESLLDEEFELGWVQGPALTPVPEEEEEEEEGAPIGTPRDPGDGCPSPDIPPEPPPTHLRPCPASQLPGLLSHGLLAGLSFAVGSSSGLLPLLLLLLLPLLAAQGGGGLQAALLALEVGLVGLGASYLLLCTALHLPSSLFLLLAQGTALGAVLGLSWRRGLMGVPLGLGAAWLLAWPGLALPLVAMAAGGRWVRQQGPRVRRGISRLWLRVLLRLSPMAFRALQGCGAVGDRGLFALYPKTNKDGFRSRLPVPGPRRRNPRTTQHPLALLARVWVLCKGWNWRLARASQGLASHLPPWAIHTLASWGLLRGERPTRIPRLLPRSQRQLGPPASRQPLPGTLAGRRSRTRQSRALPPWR

[3] = molecular target: MAP kinase-activated protein kinase 2 (Homo sapiens, UniProt P49137); assay: Selectivity interaction (Kinase panel (literature)) EUB0001199aCl MAPKAPK2; details: at 1 µM
[4] = molecular target: Cyclin-dependent kinase 9 (Homo sapiens, UniProt P50750); assay: Selectivity interaction (ActivX KiNativ screen (ex vivo kinase selectivity in human PBMCs)) EUB0001619a CDK9; type: cell-based; details: PBMC, at 1 µM
[5] = molecular target: T2, Serine/threonine-protein kinase DCLK1 (Homo sapiens) (UniProt O15075); assay: Selectivity interaction (KinomeScan (DiscoverX)) EUB0001619a DCLK1; details: at 1 µM
T2 sequence (whole entry): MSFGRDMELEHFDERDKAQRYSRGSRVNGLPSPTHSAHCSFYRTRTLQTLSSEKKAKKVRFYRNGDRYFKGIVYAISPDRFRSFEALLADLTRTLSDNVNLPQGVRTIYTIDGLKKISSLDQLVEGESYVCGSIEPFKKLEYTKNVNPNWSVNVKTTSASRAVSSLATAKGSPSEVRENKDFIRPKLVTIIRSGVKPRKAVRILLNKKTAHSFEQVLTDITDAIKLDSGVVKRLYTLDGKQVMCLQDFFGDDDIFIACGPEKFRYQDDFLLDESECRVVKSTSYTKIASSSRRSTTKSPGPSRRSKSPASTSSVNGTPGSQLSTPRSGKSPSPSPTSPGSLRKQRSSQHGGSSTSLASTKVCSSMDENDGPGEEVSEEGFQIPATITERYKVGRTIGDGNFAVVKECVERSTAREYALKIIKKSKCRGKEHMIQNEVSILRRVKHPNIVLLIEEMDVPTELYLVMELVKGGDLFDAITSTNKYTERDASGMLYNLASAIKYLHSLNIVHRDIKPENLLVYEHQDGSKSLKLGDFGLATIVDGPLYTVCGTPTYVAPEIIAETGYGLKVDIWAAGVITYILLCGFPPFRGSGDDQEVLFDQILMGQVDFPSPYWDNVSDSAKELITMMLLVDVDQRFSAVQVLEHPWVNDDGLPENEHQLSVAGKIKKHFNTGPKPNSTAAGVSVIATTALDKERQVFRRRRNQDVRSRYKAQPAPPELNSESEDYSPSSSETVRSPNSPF

[6] = molecular target: Serine/threonine-protein kinase OSR1 (Homo sapiens) (UniProt O95747); assay: Selectivity interaction (Kinase panel (DSF assay)) EUB0001558a OXSR1
[7] = molecular target: T3, Serine/threonine-protein kinase 17A (Homo sapiens) (UniProt Q9UEE5); assay: Selectivity interaction (KinomeScan (DiscoverX)) EUB0000045b STK17A
T3 sequence (whole entry): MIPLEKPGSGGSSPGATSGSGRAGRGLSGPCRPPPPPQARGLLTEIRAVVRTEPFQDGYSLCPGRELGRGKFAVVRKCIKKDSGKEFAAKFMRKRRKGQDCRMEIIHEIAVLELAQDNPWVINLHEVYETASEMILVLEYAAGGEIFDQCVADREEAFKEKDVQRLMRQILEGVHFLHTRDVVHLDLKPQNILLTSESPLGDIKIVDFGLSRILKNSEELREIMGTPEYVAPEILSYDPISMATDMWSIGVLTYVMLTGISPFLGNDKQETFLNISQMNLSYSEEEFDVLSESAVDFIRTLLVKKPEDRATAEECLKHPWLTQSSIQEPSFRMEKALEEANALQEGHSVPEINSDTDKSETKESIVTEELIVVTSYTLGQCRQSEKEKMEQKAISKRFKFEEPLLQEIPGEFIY

[8] = molecular target: LIM domain kinase 2 (Homo sapiens) (UniProt P53671); assay: Selectivity interaction (KinomeScan (DiscoverX)) EUB0000666a LIMK2; details: at 10 µM
[9] = molecular target: Death-associated protein kinase 3 (Homo sapiens) (UniProt O43293); assay: Selectivity interaction (KinomeScan (DiscoverX)) EUB0000092b DAPK3; details: at 10 µM
Chain of Death-associated protein kinase 3 (Homo sapiens) (O43293 whole entry, looked up): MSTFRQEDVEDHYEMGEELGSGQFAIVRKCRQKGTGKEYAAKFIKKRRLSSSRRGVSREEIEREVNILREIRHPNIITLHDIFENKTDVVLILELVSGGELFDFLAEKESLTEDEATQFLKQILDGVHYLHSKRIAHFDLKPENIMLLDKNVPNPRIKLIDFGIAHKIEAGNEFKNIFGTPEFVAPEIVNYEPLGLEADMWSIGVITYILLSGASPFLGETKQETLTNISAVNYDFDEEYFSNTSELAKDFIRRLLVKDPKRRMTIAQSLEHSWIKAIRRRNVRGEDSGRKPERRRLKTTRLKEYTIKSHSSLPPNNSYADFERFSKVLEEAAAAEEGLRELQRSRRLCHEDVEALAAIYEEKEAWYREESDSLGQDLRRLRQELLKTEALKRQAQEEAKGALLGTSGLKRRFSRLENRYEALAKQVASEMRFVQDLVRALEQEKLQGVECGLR

Chain of Serine/threonine-protein kinase OSR1 (Homo sapiens) (O95747 2-527 limits assumed): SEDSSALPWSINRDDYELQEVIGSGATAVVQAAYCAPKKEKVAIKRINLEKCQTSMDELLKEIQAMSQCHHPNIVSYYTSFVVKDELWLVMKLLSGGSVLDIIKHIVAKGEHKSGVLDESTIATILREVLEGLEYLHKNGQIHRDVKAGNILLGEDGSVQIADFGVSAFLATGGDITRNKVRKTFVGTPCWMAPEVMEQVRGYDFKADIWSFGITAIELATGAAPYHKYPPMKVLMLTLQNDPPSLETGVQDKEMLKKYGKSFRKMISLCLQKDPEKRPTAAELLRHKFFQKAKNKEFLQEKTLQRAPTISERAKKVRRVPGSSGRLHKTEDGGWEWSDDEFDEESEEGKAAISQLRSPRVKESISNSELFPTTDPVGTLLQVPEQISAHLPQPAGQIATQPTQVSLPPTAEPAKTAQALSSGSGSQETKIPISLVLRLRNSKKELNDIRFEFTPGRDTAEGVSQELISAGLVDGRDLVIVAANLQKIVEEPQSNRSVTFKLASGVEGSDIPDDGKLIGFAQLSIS
Chain of Calcium/calmodulin-dependent protein kinase type 1G (Homo sapiens) (Q96NX5 whole entry): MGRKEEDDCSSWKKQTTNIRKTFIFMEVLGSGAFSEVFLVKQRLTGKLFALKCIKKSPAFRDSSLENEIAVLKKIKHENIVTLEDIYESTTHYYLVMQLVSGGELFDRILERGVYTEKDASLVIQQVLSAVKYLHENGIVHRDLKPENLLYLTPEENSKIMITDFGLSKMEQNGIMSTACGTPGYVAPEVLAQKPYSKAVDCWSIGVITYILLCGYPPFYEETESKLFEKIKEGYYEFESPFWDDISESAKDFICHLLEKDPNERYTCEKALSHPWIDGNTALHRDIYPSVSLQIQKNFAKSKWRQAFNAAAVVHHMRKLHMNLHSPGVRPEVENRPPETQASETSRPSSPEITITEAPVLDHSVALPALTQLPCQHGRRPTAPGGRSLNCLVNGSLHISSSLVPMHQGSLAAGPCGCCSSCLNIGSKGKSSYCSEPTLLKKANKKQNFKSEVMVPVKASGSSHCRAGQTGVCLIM
Chain of Cyclin-dependent kinase 9 (P50750 whole entry): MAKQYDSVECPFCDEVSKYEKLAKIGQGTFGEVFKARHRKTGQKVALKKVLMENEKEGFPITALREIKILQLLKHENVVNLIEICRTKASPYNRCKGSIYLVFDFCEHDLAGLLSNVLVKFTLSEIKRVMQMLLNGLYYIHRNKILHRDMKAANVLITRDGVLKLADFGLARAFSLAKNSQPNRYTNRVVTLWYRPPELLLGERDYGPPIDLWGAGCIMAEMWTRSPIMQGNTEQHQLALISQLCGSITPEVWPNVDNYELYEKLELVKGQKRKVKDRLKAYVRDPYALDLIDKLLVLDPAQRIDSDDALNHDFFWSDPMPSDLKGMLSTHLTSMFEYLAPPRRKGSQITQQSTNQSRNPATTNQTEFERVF
Chain of LIM domain kinase 2 (Homo sapiens) (P53671 whole entry, looked up, the tested form may be a part): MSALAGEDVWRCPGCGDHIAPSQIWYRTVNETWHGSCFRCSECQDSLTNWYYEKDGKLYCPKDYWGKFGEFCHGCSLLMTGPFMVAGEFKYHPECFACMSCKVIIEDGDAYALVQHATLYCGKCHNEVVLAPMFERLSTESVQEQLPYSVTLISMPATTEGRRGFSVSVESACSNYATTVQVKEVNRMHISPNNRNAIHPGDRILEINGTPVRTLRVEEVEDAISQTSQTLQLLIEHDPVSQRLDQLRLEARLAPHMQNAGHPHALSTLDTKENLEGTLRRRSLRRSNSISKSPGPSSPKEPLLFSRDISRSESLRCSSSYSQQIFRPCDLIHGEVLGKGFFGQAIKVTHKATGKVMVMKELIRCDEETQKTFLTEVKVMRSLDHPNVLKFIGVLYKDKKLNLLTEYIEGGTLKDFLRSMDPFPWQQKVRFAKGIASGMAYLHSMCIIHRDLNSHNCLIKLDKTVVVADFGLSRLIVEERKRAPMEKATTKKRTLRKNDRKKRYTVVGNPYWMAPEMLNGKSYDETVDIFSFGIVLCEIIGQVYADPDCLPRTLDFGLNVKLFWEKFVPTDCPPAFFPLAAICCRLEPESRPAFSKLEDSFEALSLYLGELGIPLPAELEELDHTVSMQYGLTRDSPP
Chain of MAP kinase-activated protein kinase 2 (P49137 whole entry, looked up): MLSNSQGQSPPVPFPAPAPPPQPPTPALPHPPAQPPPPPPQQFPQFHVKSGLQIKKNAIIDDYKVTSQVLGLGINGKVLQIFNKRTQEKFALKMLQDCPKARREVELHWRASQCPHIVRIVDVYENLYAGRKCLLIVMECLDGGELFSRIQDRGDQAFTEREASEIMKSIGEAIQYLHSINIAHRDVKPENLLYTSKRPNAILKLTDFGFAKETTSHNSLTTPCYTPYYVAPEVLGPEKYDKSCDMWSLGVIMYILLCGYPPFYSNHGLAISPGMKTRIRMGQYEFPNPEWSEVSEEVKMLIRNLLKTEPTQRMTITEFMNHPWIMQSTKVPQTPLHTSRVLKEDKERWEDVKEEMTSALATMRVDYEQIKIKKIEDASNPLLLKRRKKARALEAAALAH

- % of control [1]: 100%
Structure (SMILES): CCN(CC)CCCCNc1ncc2cc(-c3cc(OC)cc(OC)c3)c(NC(=O)NC(C)(C)C)nc2n1

- % of inhibition [2]: -1%
- % of inhibition [3]: 3%
Structure (SMILES): CN1Cc2nccc(-c3cn(C)nc3-c3ccc(F)cc3)c2C1=O

Structure (SMILES): N#Cc1cccc(-c2c[nH]c3ncnc(N4CCOCC4)c23)c1
- % of inhibition [4]: 22%
- % of control [5]: 100%

Structure (SMILES): CC(C)(O)[C@H](F)CN1Cc2cc(NC(=O)c3cnn4cccnc34)c(N3CCOCC3)cc2C1=O
- dTM [6]: -0.5 K

Structure (SMILES): C=CC(=O)Nc1cc(-n2c(=O)ccc3cnc4ccc(-c5ccc(NS(C)(=O)=O)cc5)cc4c32)ccc1C
- % of control ([7]; at 1 µM): 100%
- % of control ([7]; at 10 µM): 100%

Structure (SMILES): O=C(NOC[C@H](O)CO)c1ccc(F)c(F)c1Nc1ccc(I)cc1F
- % of control [8]: 100%

Structure (SMILES): CCC(=O)N1CCN(c2ccc(-n3c(=O)ccc4cnc5ccc(-c6cnc7ccccc7c6)cc5c43)cc2C(F)(F)F)CC1
- % of control [9]: 82%
